From publication PMC11206789, “Controlling the Solubility, Release Rate and Permeation of Riluzole with Cyclodextrins” (Pharmaceutics, 2024)

How the values were obtained:
[1] = 298.15 K, in water with undefined pH; cited from earlier work
[2] = Dissolution of solid samples under dynamic conditions, side-by-side cell; format: physicochemical; conditions: for DE60, dissolution efficacy at 60 min / DPP, dissolution performance parameter / Q15, amount of RLZ dissolved at 15 min: buffer pH 6.8, 310 K; for Q15, amount of RLZ dissolved at 15 min: RLZ amount of 100 mg daily dose; for Dose dissolved during 180 min: buffer pH 6.8, 310.15 K
Experimental: The volume of the donor compartment was 7 mL. The powdered samples were placed in the donor cell. Then, 7 mL of buffer pH 6.8 was added to the donor compartment (start of the experiment). The solution was stirred with a stirring bar at a fixed speed of 500 rpm. The cell was maintained at 310.15 K during the experiment via water circulating. The samples of the solutions (V = 0.4 mL) from the donor cell were withdrawn every 5, 10, 15, 20, 25, 30, 40, 60, 90, 120, and 180 min followed by immediate replacement with fresh medium. The experiment lasted 3 h. The samples from the donor cell were filtered (syringe nylon filter, 13 mm diameter, pore size 0.45 μm). The concentrations of the samples were measured in a 96-well UV black plate (Costar) using a spectrophotometer (Spectramax 190; Molecular devices, Molecular Devices Corporation, San Jose, CA, USA). The kinetic curves of the dissolution/release of pure RLZ and RLZ from the solid samples were obtained.
The dissolution performance parameter (DPP), was calculated as follows:(16) DPP=AUCactual/AUCtheoretical×100% where AUCactual is the integral area under the curve C0Ct, and AUCtheoretical is the integral area under the curve CmaxCmax. Dissolution efficacy after 60 min (DE60)—a percentage of the area of the rectangle described by 100% dissolution at 60 min was determined by the calculation of the area under a dissolution curve up to 60 min by the following equation [49]:(17) DE60=∫060Qdt/Q100%×60×100% where Q is the percentage of the dissolved drug, t is the dissolution time point at 60 min.

[3] = Permeation under dynamic conditions (D/P setup), cellulose membrane; format: in vitro ADME; conditions: RC membrane, 310.15 K
Text: The membrane of regenerated cellulose MWCO 12–14 kDa (Visking dialysis tubing MWCO 12–14 kDa, Medicell Membranes Ltd., London, UK) was applied as a barrier between the donor and receptor cells with an effective surface area of 1.77 cm^2. In addition, the PermeaPad barrier (PP) (PHABIOC, Germany, https://www.permeapad.com (accessed on 1 February 2023)) and polydimethylsiloxane-polycarbonate (55% polydimethylsiloxane and 45% polycarbonate, 40 μm in thickness) membrane “Carbosil” (PDS) (PENTAMED, Moscow, Russia, www.penta-med.ru) were used in a series of tests. The volume of the receptor compartment was the same as the donor one—7 mL. The donor and receptor cells were assembled with a membrane between them. The receptor compartment was filled with 7 mL of buffer pH 6.8. In the case of the samples with CD, the receptor solution contained the amount of CD equivalent to that in the solid sample. The solution in the receptor cell was stirred at 500 rpm. The constant temperature of 310.15 K was maintained. […]
Quantitative analysis of the permeation was evaluated using the flux (J) through the membrane which was determined as a slope of the permeation profiles representing the amount of permeated compound over the surface area (dQ/A) versus the time (t) in accordance with the equation:(20) J=dQ/A×dt

[4] = RLZ/CD stability constant from phase-solubility diagrams, van't Hoff thermodynamics; format: physicochemical; conditions: for Complexation (stability) constant KCS of RLZ/CD complex: 1:1 complex
Experimental: The standard (at 298.15 K) enthalpy change ( ΔHC0,S ) and the standard entropy change ( ΔSC0,S ) upon complex formation were calculated with the help of the integral form of the van’t Hoff’s equation:(4) lnKCS=−ΔHC0,S/RT+ΔSC0,S/R where T = 298.15 K, and R is the universal gas constant. A plot of lnKCS versus 1/T produces Slope=−ΔHC0,S/R and intercept equal to ΔSC0,S/R . The standard (at 298.15 K) change of the complexation Gibbs energy ( ΔGC0,S ) was calculated as follows:(5) ΔGC0,S=−RTlnKCS

Row | DE60, dissolution efficacy at 60 min [2] [%] | DPP, dissolution performance parameter [2] [%] | Q15, amount of RLZ dissolved at 15 min [2] [%] | Increase of flux across the membrane, 30–180 min versus up to 30 min [3] [fold] | Compound | Stability constant of cyclodextrin complex with RLZ [1] [M⁻¹] | other results
1 | – | – | – | – | COC[C@H]1O[C@@H]2O[C@H]3[C@H](O)[C@@H](OC)[C@@H](O[C@H]4[C@H](O)[C@@H](OC)[C@@H](O[C@H]5[C@H](O)[C@@H](OC)[C@@H](O[C@H]6[C@H](O)[C@@H](OC)[C@@H](O[C@H]7[C@H](O)[C@@H](OC)[C@@H](O[C@H]8[C@H](O)[C@@H](OC)[C@@H](O[C@H]1[C@H](O)[C@H]2OC)O[C@@H]8COC)O[C@@H]7COC)O[C@@H]6COC)O[C@@H]5COC)O[C@@H]4COC)O[C@@H]3COC [DM-β-CD, 2,6-di-O-methyl-β-cyclodextrin] | 1609.1 | –
2 | – | – | – | – | CC(O)COC[C@H]1O[C@@H]2O[C@H]3[C@H](O)[C@@H](O)[C@@H](O[C@H]4[C@H](O)[C@@H](O)[C@@H](O[C@H]5[C@H](O)[C@@H](O)[C@@H](O[C@H]6[C@H](O)[C@@H](O)[C@@H](O[C@H]7[C@H](O)[C@@H](O)[C@@H](O[C@H]8[C@H](O)[C@@H](O)[C@@H](O[C@H]1[C@H](O)[C@H]2O)O[C@@H]8COCC(C)O)O[C@@H]7COCC(C)O)O[C@@H]6COCC(C)O)O[C@@H]5COCC(C)O)O[C@@H]4COCC(C)O)O[C@@H]3COCC(C)O (stereo partly drawn) [HP-β-CD, hydroxypropyl-β-cyclodextrin] | 2327 | –
3 | 39.9 | 57.0 | 28.3 | 1.3 | Nc1nc2ccc(OC(F)(F)F)cc2s1 [RLZ_gr] | – | Dose dissolved during 180 min ([2]; listed as ground RLZ): 72%; Similarity factor f2 ([2]; reference raw RLZ, f2 > 50 shows similarity): 49.9
4 | 30.0 | 46.2 | 22.9 | 1.3 | Nc1nc2ccc(OC(F)(F)F)cc2s1 [RLZ_raw] | – | Dose dissolved during 180 min ([2]; listed as raw RLZ): 62%
5 | – | – | – | – | OC[C@H]1O[C@@H]2O[C@H]3[C@H](O)[C@@H](O)[C@@H](O[C@H]4[C@H](O)[C@@H](O)[C@@H](O[C@H]5[C@H](O)[C@@H](O)[C@@H](O[C@H]6[C@H](O)[C@@H](O)[C@@H](O[C@H]7[C@H](O)[C@@H](O)[C@@H](O[C@H]1[C@H](O)[C@H]2O)O[C@@H]7CO)O[C@@H]6CO)O[C@@H]5CO)O[C@@H]4CO)O[C@@H]3CO [α-CD, α-cyclodextrin] | – | Fold lower association constant of RLZ as compared to SBE-β-CD [4]: approximately 11 fold; Complexation (stability) constant KCS of RLZ/CD complex ([4]; pH 6.8, 310.15 K): 102.3 M⁻¹
6 | – | – | – | – | sulfobutylether-β-cyclodextrin [SBE-β-CD] | – | Fold more stable RLZ complex as compared to α-CD ([4]; from Table 2): 11 fold; Complexation (stability) constant KCS of RLZ/CD complex ([4]; pH 6.8, 298.15 K): 1116.0 M⁻¹
